Here are results for 6 molecules from paper PMC7570859, “Simultaneous Quantification and Pharmacokinetic Study of Five Homologs of Dalbavancin in Rat Plasma Using UHPLC-MS/MS” (Molecules, 2020).

As usually defined, the Cmax is the peak of the concentration-time curve. As a reminder, the MRT is a mean duration of stay, worked out from the concentration-time curve. One may read the half-life as the time needed for the level to fall by half in the phase considered. Low readings indicate rapid decline, high ones slow decline.

Read-outs that look alike come from different tables or passages of the source.

Series [1] is described as follows: Pharmacokinetic study of dalbavancin components in rat plasma after IV dalbavancin hydrochloride (UHPLC-MS/MS). The following applies: SD rats, IV 40 mg/kg dalbavancin hydrochloride, mean ± SD, n = 10; for AUC(0–t): 0 to 216 h; for AUC(0–t) / AUC(0–∞): UHPLC-MS/MS, non-compartmental; for MRT / half-life / Vd: both, Sprague-Dawley, rat, iv, 40 mg/kg; for MRT: MRT(0–t); for Vd: Vz (apparent volume of distribution).
Protocol: (§1) A total of 20 animal plasma samples were analyzed using the verified UHPLC-MS/MS detection method to evaluate 28-day multiple-dose pharmacokinetics of dalbavancin hydrochloride injected daily in rats.
(§2) Blood samples were collected and centrifuged (5417R centrifuge, Eppendorf AG, Hamburg, Germany) at 835× g for 10 min to separate the upper plasma. Then, 50 μL of plasma was mixed with 200 μL of methanol (containing dalbavancin B0-D8 isotope internal standard solutions at a concentration of 100 ng/mL), after which the solution was swirled with a multi-tube vortex mixer (Allsheng, Hangzhou, China) for 10 min and centrifuged at 12,000× g for 10 min. To obtain a cleaner supernatant, it was further centrifuged at 12,000× g for 5 min before sample injection.
(§3) The UHPLC system consisted of an ACQUITY UPLC I-Class (Waters Corp., Milford, MA, USA) and separation was achieved on an ACQUITY UPLC BEH C18 (2.1 mm × 100 mm, 1.7 μm, Waters Corp.). The mobile phase contained 0.1% formic acid (phase A) and acetonitrile (phase B), while the gradient elution procedure was as follows; 0.00–1.00 min: 20%B→30%B, 1.00–6.00 min: 30%B→33%B, 6.01–7.00 min: 95%B, 7.00–7.01 min: 95%B→20%B, 7.01–8.00 min: 20%B. The flow rate was 0.300 mL/min, and the sample injection volume was 5.0 μL. The autosampler was maintained at 6 °C.
(§4) The mass spectrometry system used was Xevo TQ triple quadrupole MS/MS (Waters Corp.), equipped with ESI source. After injecting 500 ng/mL of dalbavancin component combined solution and dalbavancin isotope internal standard solution into the mass spectrometer, the optimized parameters of the instrument were obtained as follows: capillary voltage, 3.00 kV; ion source temperature, 150 °C; desolvation gas temperature, 350 °C; collision gas flow rate, 0.15 mL/min; desolvation gas flow rate, 650 L/h. SRM was used for monitoring the positive ion mode and the total analysis run time was 8 min. Data was processed using UNIFI v1.9.3 software (Waters Corp.).
(§5) A total of 20 SD rats (weighing approximately 200 g each) were selected and divided into two equal groups, with each group containing 5 male and 5 female rats. Pharmacokinetic experiments were conducted for single-dose and multiple-dose administration of dalbavancin hydrochloride. The route of administration was IV, with an administration volume of 5 mL/kg and a dosage was 40 mg/kg. Blood sampling time points of the single-dose administration group were before administration (0 h) and 5 min, 3 h, 8 h, 24 h, 72 h, 144 h, and 216 h post administration. Blood was collected on day 28 for the multiple-dose administration group, and the time points of blood collection were the same as those of single-dose administration. The blood samples collected were immediately separated using centrifugation at 12,000× g for 10 min, and then, the plasma were transferred and stored at −16 °C to −24 °C until analysis.
(§6) Microsoft Office Excel 2007 and IBM SPSS Statistics 19.0 were used for data processing and statistical calculation using two-tailed Student’s t-test. Data Analysis System 3.1 software (DAS, Shanghai, China) was used to analyze and calculate AUC(0–∞), T1/2, Cmax and other parameters using the non-compartmental model.

For series [2] the following is noted: rat, in vivo, iv, 40 mg/kg.
Protocol: as §1, §2, §3, §4, §5, §6
For series [3] the following is noted: in vivo; cited from earlier work.
Where [4] appears, read: D28, multiple-dose group, daily for 28 days.
The mark [5] stands for this setting: T1/2, D28, multiple-dose group, daily for 28 days.

As for `CN[C@H]1C(=O)N[C@@H]2Cc3ccc(cc3)Oc3cc4cc(c3O[C@@H]3O[C@H](C(=O)O)[C@@H](O)[C@H](O)[C@H]3NC(=O)CCCCCCCC(C)C)Oc3ccc(cc3Cl)[C@@H](O)[C@@H]3NC(=O)[C@H](NC(=O)[C@@H]4NC(=O)[C@@H](NC2=O)c2cc(cc(O)c2Cl)Oc2cc1ccc2O)c1ccc(O)c(c1)-c1c(O[C@H]2O[C@H](CO)[C@@H](O)[C@H](O)[C@@H]2O)cc(O)cc1[C@@H](C(=O)NCCCN(C)C)NC3=O` [A0], in series [1] (D1, single-dose group), the “AUC(0–t)” value is 10.5 ± 2.6 µg·h/mL, the “AUC(0–∞)” value was determined as 11.8 ± 2.6 µg·h/mL, the Cmax was determined as 1800 ± 200 ng/mL and the “Vz (apparent volume of distribution)” value was determined as 32.9 ± 5.7 L/kg. Further, the MRT in series [1] (D1, single-dose group) is 5.6 ± 0.3 h. In series [1] (setting [4]), the MRT was 60.7 ± 2.7 h and the Vd amounted to 196 ± 27.3 L/kg. This molecule had a half-life in series [1] (T1/2, D1, single-dose group) of 6.5 ± 0.6 h.

On to `CCCCCCCCCCC(=O)N[C@H]1[C@H](Oc2c3cc4cc2Oc2ccc(cc2Cl)[C@@H](O)[C@@H]2NC(=O)[C@H](NC(=O)[C@@H]4NC(=O)[C@H]4NC(=O)[C@@H](Cc5ccc(cc5)O3)NC(=O)[C@H](NC)c3ccc(O)c(c3)Oc3cc(O)c(Cl)c4c3)c3ccc(O)c(c3)-c3c(O[C@H]4O[C@H](CO)[C@@H](O)[C@H](O)[C@@H]4O)cc(O)cc3[C@@H](C(=O)NCCCN(C)C)NC2=O)O[C@H](C(=O)O)[C@@H](O)[C@@H]1O` [A1], for which, in series [1] (D1, single-dose group), the “AUC(0–t)” value came out at 155.4 ± 79.9 µg·h/mL, the “AUC(0–∞)” value stood at 173.1 ± 65.6 µg·h/mL, the Cmax stood at 14800 ± 6100 ng/mL and the “Vz (apparent volume of distribution)” value is 9.4 ± 3.3 L/kg. In addition, in series [1] (D1, single-dose group), the MRT was found to be 17 ± 3.8 h. For the same molecule, in series [1] (setting [4]), the MRT came to 53 ± 5.2 h and the Vd is 10.1 ± 1.3 L/kg. Besides, the half-life in series [1] (T1/2, D1, single-dose group) is 27.5 ± 11.4 h. The molecule also showed a half-life in series [1] (setting [5]) of 110 ± 10.6 h.

Regarding `CN[C@H]1C(=O)N[C@@H]2Cc3ccc(cc3)Oc3cc4cc(c3O[C@@H]3O[C@H](C(=O)O)[C@@H](O)[C@H](O)[C@H]3NC(=O)CCCCCCCCC(C)C)Oc3ccc(cc3Cl)[C@@H](O)[C@@H]3NC(=O)[C@H](NC(=O)[C@@H]4NC(=O)[C@@H](NC2=O)c2cc(cc(O)c2Cl)Oc2cc1ccc2O)c1ccc(O)c(c1)-c1c(O[C@H]2O[C@H](CO)[C@@H](O)[C@H](O)[C@@H]2O)cc(O)cc1[C@@H](C(=O)NCCCN(C)C)NC3=O` [B0], in series [2] (both, Sprague-Dawley), the “MRT(0–t)” value came to 23.0 ± 0.9 h, the T1/2 worked out at 74.6 ± 45.9 h and the “Vz (apparent volume of distribution)” value was determined as 0.7 ± 0.5 L/kg. In series [2], the “AUC(0–t)” value amounted to 5776.5 ± 2593.2 µg·h/mL, the “AUC(0–∞)” value came out at 6566.7 ± 1820.3 µg·h/mL, the Cmax was determined as 437300 ± 160300 ng/mL and the “plasma AUC(0–∞) relative to the other components combined” value is recorded as “approximately 5.8 times”.

As to `CCCCCCCCCCCC(=O)N[C@H]1[C@H](Oc2c3cc4cc2Oc2ccc(cc2Cl)[C@@H](O)[C@@H]2NC(=O)[C@H](NC(=O)[C@@H]4NC(=O)[C@H]4NC(=O)[C@@H](Cc5ccc(cc5)O3)NC(=O)[C@H](NC)c3ccc(O)c(c3)Oc3cc(O)c(Cl)c4c3)c3ccc(O)c(c3)-c3c(O[C@H]4O[C@H](CO)[C@@H](O)[C@H](O)[C@@H]4O)cc(O)cc3[C@@H](C(=O)NCCCN(C)C)NC2=O)O[C@H](C(=O)O)[C@@H](O)[C@@H]1O` [B1], in series [1] (D1, single-dose group), the “AUC(0–t)” value worked out at 688.2 ± 272.2 µg·h/mL, the “AUC(0–∞)” value is 756.2 ± 191.4 µg·h/mL, the Cmax was determined as 42900 ± 18900 ng/mL and the MRT amounted to 32.3 ± 1.5 h. Further, the Vd in series [1] (D1, single-dose group) amounted to 2.3 ± 0.4 L/kg. In series [1] (setting [4]), the MRT was found to be 68.6 ± 8.2 h and the Vd was found to be 1.2 ± 0.4 L/kg. This molecule showed a half-life in series [1] (T1/2, D1, single-dose group) of 29.1 ± 1.1 h. The molecule also gave a half-life in series [1] (setting [5]) of 87 ± 27.5 h.

On to `CC(C)CCCCCCCCC(=O)N[C@H]1[C@H](Oc2c3cc4cc2Oc2ccc(cc2Cl)[C@@H](O)[C@@H]2NC(=O)[C@H](NC(=O)[C@@H]4NC(=O)[C@H]4NC(=O)[C@@H](Cc5ccc(cc5)O3)NC(=O)[C@H](N(C)C)c3ccc(O)c(c3)Oc3cc(O)c(Cl)c4c3)c3ccc(O)c(c3)-c3c(O[C@H]4O[C@H](CO)[C@@H](O)[C@H](O)[C@@H]4O)cc(O)cc3[C@@H](C(=O)NCCCN(C)C)NC2=O)O[C@H](C(=O)O)[C@@H](O)[C@@H]1O` [B2], for which, in series [1] (D1, single-dose group), the “AUC(0–t)” value is 163.7 ± 79.5 µg·h/mL, the “AUC(0–∞)” value came out at 187.2 ± 61.2 µg·h/mL, the Cmax was 23400 ± 10400 ng/mL and the MRT turned out to be 16.2 ± 2.4 h. In addition, in series [1] (D1, single-dose group), the Vd was 28 ± 23 L/kg. In addition, in series [1] (setting [4]), the MRT amounted to 55.7 ± 4.7 h and the Vd came out at 13.5 ± 3.4 L/kg. The half-life in series [1] (T1/2, D1, single-dose group) is 87.3 ± 68.9 h. For the same molecule, the half-life in series [1] (setting [5]) was 153 ± 43 h.

With Dalbavancin, in series [3], the “adverse event: diarrhea” value is on record as 4.4%, the “adverse event: headache” value is reported as 4.7% and the “adverse event: nausea” value is 5.5%.
